Patent US20260070924A1, “INDAZOLE MACROCYCLES AND THEIR USE” (BLOSSOMHILL THERAPEUTICS, INC., priority 2022, published 2026)

How the values were obtained:
Format in all cases: cell-based
phospho-FLT3 (Y589/Y591) = phospho-FLT3 (Y589/Y591) (Homo sapiens, UniProt P36888, INS600FREYEYD); test: Inhibition of kinase phosphorylation by Western Blot in MOLM-13; conditions: MOLM-13 cells, 4 hour-incubation; read-out: pFLT3 MOLM-13 IC50
[1] = tested on: S6K (PRS6KB1) exon6-8/exon 6-7; test: Alternative splicing ratio by qPCR in MOLM-13; conditions: DMSO = 1.02
Procedure: Alternative splicing ratio of RNA transcripts was measured by qPCR in MV-4-11 and MOLM-13 cell lines. Cells were plated in 24 well plates at 1 million cells per well and then treated with compounds at different concentrations, with DMSO only as control. After 8-hour-incubation, cells were harvested and washed once with ice-cold PBS, and lysed in RNA lysis buffer (Invitrogen). Total RNA was extracted using the RNA Purification Kit (Invitrogen). 2 μg of RNA was used for cDNA synthesis using cDNA synthesis kit (ThermoFisher) and 20 ng of cDNA was used for qPCR using PROFLEX 96-Well PCR System (ThermoFisher).

phospho-STAT5 (Y694) = test: Inhibition of kinase phosphorylation by Western Blot in MV-4-11; conditions: MV-4-11 cells, 4 hour-incubation; read-out: pSTAT5 MV-4-11 IC50
Procedure: (§1) Inhibition of kinase phosphorylation assay was performed by Western Blot using MV-4-11 and MOLM13 cell lines. Cells were plated in 24 well plates at 1 million cells per well and then treated with compounds at different concentrations, starting at 100 nM, 1:4 titration with DMSO as control. After 4 hour-incubation, cells were washed once with ice-cold PBS, and lysed in RIPA lysis buffer with protease and phosphatase inhibitors. The cell lysates were then sonicated and spun down, and 40 μg of proteins were separated by sodium dodecyl sulfate electrophoresis on a 4 to 12% Bis-Tris polyacrylamide gel and transferred onto nitrocellulose membranes using Bio-Rad Trans-Blot Turbo Transfer System (Bio-Rad). Blocking was performed using 3% BSA or 5% Non-fat dry milk (Fisher Scientific) in TBST (Tris-buffered saline containing 0.05% of Tween 20) (Bio-Rad Laboratories, Inc.). The membranes were incubated overnight with anti-phospho-FLT3 (Y589/Y591) (CST #60413), anti-phospho-STAT5 (Y694) (CST #4322), anti-Phospho-p44/42 MAPK (Erk1/2) (T202/Y204) (CST #9101), anti-Phospho-S6 Ribosomal Protein (S235/236) (CST #4858) and anti-β-Actin (CST #8457) each diluted 1000 times in 3% BSA in TBST. Membranes were washed with TBST and then incubated at room temperature for 1 hour with HRP-labeled anti-rabbit IgG polyclonal antibody (CST #7074) diluted 1000 times in 3% BSA. After TBST washing, blots were developed with a chemiluminescence system (SuperSignal West Femto Maximum Sensitivity Substrate, Pierce #34095). Luminescence was detected by LI-COR Odyssey M imaging system and luminescence intensity were quantified using Empiria Studio 2.2 software. Data was analyzed using GraphPad Prism 9 (GraphPad Software, San Diego, CA) to obtain IC50 values.

[2] = tested on: Phospho-S6 Ribosomal Protein (S235/236); test: as above; conditions: MV-4-11 cells, 4 hour-incubation; read-out: pS6 MV-4-11 IC50
Procedure: as §1

[3] = tested on: Phospho-p44/42 MAPK (Erk1/2) (T202/Y204); test: as above; conditions: MV-4-11 cells, 4 hour-incubation; read-out: pERK MV-4-11 IC50
Procedure: as §1

MOLM-13 cell line = test: Alternative splicing events by RNAseq in MOLM-13; conditions: 8 hour-incubation
Procedure: Alternative splicing events were measured by RNAseq in MOLM-13 cell line. Cells were plated in 24 well plates at 1 million cells per well and then treated with compounds at different concentrations, with DMSO as control. After 8 hour-incubation, cells were harvested and washed once with ice-cold PBS, and lysed in RNA lysis buffer (Invitrogen). Total RNA was extracted using the RNA Purification Kit (Invitrogen). RNAseq was performed by Biomiga (San Diego).

Chain of phospho-FLT3 (Y589/Y591) (P36888 with tags, fused parts or gaps INS600FREYEYD limits assumed): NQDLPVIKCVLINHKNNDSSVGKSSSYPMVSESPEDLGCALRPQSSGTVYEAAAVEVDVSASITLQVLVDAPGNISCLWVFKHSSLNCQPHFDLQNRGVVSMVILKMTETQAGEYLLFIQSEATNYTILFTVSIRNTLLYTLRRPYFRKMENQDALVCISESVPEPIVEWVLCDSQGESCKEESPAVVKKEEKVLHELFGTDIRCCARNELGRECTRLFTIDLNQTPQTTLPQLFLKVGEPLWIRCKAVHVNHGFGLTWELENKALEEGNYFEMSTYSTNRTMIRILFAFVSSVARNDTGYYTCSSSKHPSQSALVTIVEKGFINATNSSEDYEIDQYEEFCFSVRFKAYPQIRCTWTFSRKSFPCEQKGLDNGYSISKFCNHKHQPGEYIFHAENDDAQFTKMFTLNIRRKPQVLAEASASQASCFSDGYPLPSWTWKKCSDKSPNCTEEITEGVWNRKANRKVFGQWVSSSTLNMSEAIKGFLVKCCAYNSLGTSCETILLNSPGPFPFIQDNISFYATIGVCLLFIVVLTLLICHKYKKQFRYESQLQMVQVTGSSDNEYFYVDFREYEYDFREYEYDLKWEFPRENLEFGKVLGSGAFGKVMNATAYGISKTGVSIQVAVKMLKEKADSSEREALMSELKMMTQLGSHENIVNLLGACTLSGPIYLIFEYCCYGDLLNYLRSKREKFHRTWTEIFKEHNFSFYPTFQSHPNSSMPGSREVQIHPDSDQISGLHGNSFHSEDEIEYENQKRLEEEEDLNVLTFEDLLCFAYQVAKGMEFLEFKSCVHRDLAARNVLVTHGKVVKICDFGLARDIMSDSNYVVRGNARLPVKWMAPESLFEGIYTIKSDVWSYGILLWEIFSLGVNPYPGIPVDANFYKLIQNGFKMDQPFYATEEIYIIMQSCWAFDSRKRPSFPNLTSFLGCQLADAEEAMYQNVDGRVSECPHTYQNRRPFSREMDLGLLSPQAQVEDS

IC50 (phospho-FLT3 (Y589/Y591)): 0.32 nM | IC50 (phospho-STAT5 (Y694)): 0.6 nM | IC50 [2]: 0.41 nM | IC50 [3]: 2.85 nM
Structure (SMILES): CCc1nn(C)c2c1/C=C/c1n[nH]c3ccc(cc13)-c1cnn(C)c1OCCN(C)C2=O [Ex. 6, (17E)-16-ethyl-8,12,14-trimethyl-2,11,12,14-tetrahydro-8H-3,5-ethenotripyrazolo[3,4-f:3′,4′-j:4″,3″-n][1,4]oxazacyclopentadecin-13(10H)-one]
Alternative Splicing Ratio S6K Ex. 6-8/Ex. 6-7 ([1]; MOLM-13, 30 nM): 1.60 | Alternative Splicing Ratio S6K Ex. 6-8/Ex. 6-7 ([1]; MOLM-13, 100 nM): 2.71 | Alternative Splicing Ratio S6K Ex. 6-8/Ex. 6-7 ([1]; MOLM-13, 300 nM): 8.08 | AS Events A3′SS (alternative 3′ splice site) (MOLM-13 cell line; MOLM-13, 30 nM): 371 | AS Events A5′SS (alternative 5′ splice site) (MOLM-13 cell line; MOLM-13, 30 nM): 289 | AS Events MXE (mutually exclusive exons) (MOLM-13 cell line; MOLM-13, 30 nM): 187 | AS Events RI (retained intron) (MOLM-13 cell line; MOLM-13, 30 nM): 536 | AS Events SE (skipped exon) (MOLM-13 cell line; MOLM-13, 30 nM): 2054 | AS Events A3′SS (alternative 3′ splice site) (MOLM-13 cell line; MOLM-13, 100 nM): 559 | AS Events A5′SS (alternative 5′ splice site) (MOLM-13 cell line; MOLM-13, 100 nM): 443 | AS Events MXE (mutually exclusive exons) (MOLM-13 cell line; MOLM-13, 100 nM): 325 | AS Events RI (retained intron) (MOLM-13 cell line; MOLM-13, 100 nM): 841 | AS Events SE (skipped exon) (MOLM-13 cell line; MOLM-13, 100 nM): 4568 | AS Events A3′SS (alternative 3′ splice site) (MOLM-13 cell line; MOLM-13, 300 nM): 722 | AS Events A5′SS (alternative 5′ splice site) (MOLM-13 cell line; MOLM-13, 300 nM): 590 | AS Events MXE (mutually exclusive exons) (MOLM-13 cell line; MOLM-13, 300 nM): 355 | AS Events RI (retained intron) (MOLM-13 cell line; MOLM-13, 300 nM): 1184 | AS Events SE (skipped exon) (MOLM-13 cell line; MOLM-13, 300 nM): 5093
